According to US9925189B2, “Heterocyclic receptor agonists for the treatment of diabetes and metabolic disorders” (CymaBay Therapeutics, Inc., priority 2006, dated 2018):

Molecular target: T1, IC-GPCR2 (Homo sapiens, UniProt Q8TDV5, S309L)
T1 construct: expressed in transfected cells
T1 sequence (Q8TDV5 1-335 S309L): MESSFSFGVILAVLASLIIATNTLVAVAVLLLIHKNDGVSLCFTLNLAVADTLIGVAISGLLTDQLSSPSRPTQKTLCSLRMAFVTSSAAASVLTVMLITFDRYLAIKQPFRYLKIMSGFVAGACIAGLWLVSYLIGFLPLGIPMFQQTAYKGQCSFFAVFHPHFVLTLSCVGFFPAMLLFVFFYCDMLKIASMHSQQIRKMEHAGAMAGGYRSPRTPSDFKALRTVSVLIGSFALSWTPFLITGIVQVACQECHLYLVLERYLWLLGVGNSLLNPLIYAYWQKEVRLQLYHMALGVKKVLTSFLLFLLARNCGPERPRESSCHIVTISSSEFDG
Assay: Stimulation of cAMP in CHO cells stably expressing IC-GPCR2 (HTRF cAMP assay)
Type: cell-based
Settings: 30 minutes, IC-GPCR2 stably expressing CHO cells; for activation at 10 µM: 0.5 h, read-out: Activity at 10 uM (% change in FRET signal from DMSO control)
Method: This assay was developed using a stable cell line expressing IC-GPCR-2, generated as follows. IC-GPCR2 (SEQ ID NO:1) was cloned into Gateway pDEST 40vector (Invitrogen), using the Gateway cloning system (invitrogen) according to the manufacturer's instructions. A stable cell line was generated by transfecting a 10 cm plate of CHO cells (source) with 8 ug of this construct using Transit-CHO transfection kit (Mirus). CHO cells were plated the day prior to transfection at a density of 3,000,000 cells/plate. Clones were selected using the antibiotic G418 at 500 ug/ml. 23 clones were picked and assayed for the expression of the receptor by measuring changes in intracellular cAMP levels in response to an IC-GPCR2 agonist.
To measure cAMP activity in response to IC-GPCR2 agonist, the clones were plated in 96 well plates at 17500 cells per well. On the day after plating, cells were incubated with the IC-CPCR2 agonist at […] for 30 minutes in Ham's F12 Media (Gibco) with 0.04% DMSO. cAMP was measured using the cAMP dynamic kit from Cis Bio (Bedford, Mass.) according to the manufacturer's instructions. Briefly, cells were lysed, and cAMP levels determined by competitive immunoassay using D2 labeled cAMP, and europium cryptate tagged anti cAMP antibody. When in close proximity, the D2 and europium cryptate undergo fluorescence resonance energy transfer (FRET), which is measured as a fluorescence ratio (665 nm/620 nm). Unlabelled cAMP in the cell lysate competed with the D2 labeled cAMP for the europium crypate labeled antibody. The resulting decrease in FRET signal corresponded to intracellular cAMP levels. Fluorescence was read on a BMG Labtech PHERAstar, software version 1.50.
Compounds were dissolved in 100% DMSO to a concentration of […] to provide stock solutions. To determine activity against IC-GPCR2, compounds were incubated with IC-GPCR2 stably expressing cells (described above), at 6-8 concentrations ranging from 0.00003 to 10 micromolar, in 96 well plates, in 50 ul of Hams F12 media for 30 minutes. Cells were plated at 17500 cells per well 1 day before running the assay. All compounds were also screened against the parental CHO cells. cAMP was measured using the cAMP dynamic kit from Cis Bio (Bedford, Mass.), according to the manufacturer's instructions. Briefly, cells were lysed and cAMP levels determined by competitive immunoassay using D2 labeled cAMP, and europium cryptate tagged anti cAMP antibody. When in close proximity, the D2 and europium cryptate undergo fluorescence resonance energy transfer (FRET), which is measured as a fluorescence ratio (665 nm/620 nm). Unlabelled cAMP in the cell lysate competed with the D2 labeled cAMP for the europium crypate labeled antibody. The resulting decrease in FRET signal corresponded to intracellular cAMP levels.
Activities of compounds disclosed in Table 1 and Table 2 below are expressed as the % change in FRET signal from DMSO control. “*” no activity observed when tested at 10 micromolar but no higher concentrations were tested. NT indicates the compound was not tested at the indicated concentration.

| activation at 10 µM | Activity at 10 uM (% change in FRET signal from DMSO control) | SMILES |
| --- | --- | --- |
| 73% | – | CC(C)COC(=O)N1CCC(c2nc(COc3ccc(-n4cnnn4)cc3)cs2)CC1 [Example 30, 4-[4-(4-Tetrazol-1-yl-phenoxymethyl)-thiazol-2-yl]-piperidine-1-carboxylic acid isobutyl ester] |
| 88% | – | CCCCCOC(=O)N1CCC(c2nc(COc3ccc(-n4cnnn4)cc3)cs2)CC1 [Example 31, 4-[4-(4-Tetrazol-1-yl-phenoxymethyl)-thiazol-2-yl]-piperidine-1-carboxylic acid pentyl ester] |
| 88% | – | O=C(OCCF)N1CCC(c2nc(COc3ccc(-n4cnnn4)cc3)cs2)CC1 [Example 32, 4-[4-(4-Tetrazol-1-yl-phenoxymethyl)-thiazol-2-yl]-piperidine-1-carboxylic acid 2-fluoro-ethyl ester] |
| 77% | – | CCCCOC(=O)N1CCC(c2nc(COc3ccc(-n4cnnn4)cc3)cs2)CC1 [Example 33, 4-[4-(4-Tetrazol-1-yl-phenoxymethyl)-thiazol-2-yl]-piperidine-1-carboxylic acid butyl ester] |
| 70% | – | CC(C)(C)COC(=O)N1CCC(c2nc(COc3ccc(-n4cnnn4)cc3)cs2)CC1 [Example 34, 4-[4-(4-Tetrazol-1-yl-phenoxymethyl)-thiazol-2-yl]-piperidine-1-carboxylic acid 2,2-dimethyl-propyl ester] |
| 64% | – | CCCCCCOC(=O)N1CCC(c2nc(COc3ccc(-n4cnnn4)cc3)cs2)CC1 [Example 35, 4-[4-(4-Tetrazol-1-yl-phenoxymethyl)-thiazol-2-yl]-piperidine-1-carboxylic acid hexyl ester] |
| 95% | – | CCCCC(CC)COC(=O)N1CCC(c2nc(COc3ccc(-n4cnnn4)cc3)cs2)CC1 (centres unmarked) [Example 36, 4-[4-(4-Tetrazol-1-yl-phenoxymethyl)-thiazol-2-yl]-piperidine-1-carboxylic acid 2-ethyl-hexyl ester] |
| 75% | – | CC(C)(C)CC(=O)N1CCC(c2nc(COc3ccc(-n4cnnn4)cc3)cs2)CC1 [Example 41, 3,3-Dimethyl-1-{4-[4-(4-tetrazol-1-yl-phenoxymethyl)-thiazol-2-yl]-piperidin-1-yl}-butan-1-one] |
| 67% | – | COC(=O)C(=O)N1CCC(c2nc(COc3ccc(-n4cnnn4)cc3)cs2)CC1 [Example 42, Oxo-{4-[4-(4-tetrazol-1-yl-phenoxymethyl)-thiazol-2-yl]-piperidin-1-yl}-acetic acid methyl ester] |
| 84% | – | CCN(CC)C(=O)N1CCC(c2nc(COc3ccc(-n4cnnn4)cc3)cs2)CC1 [Example 45, 4-[4-(4-Tetrazol-1-yl-phenoxymethyl)-thiazol-2-yl]-piperidine-1-carboxylic acid diethylamide] |
| 30% | – | CCNC(=O)N1CCC(c2nc(COc3ccc(-n4cnnn4)cc3)cs2)CC1 [Example 46, 4-[4-(4-Tetrazol-1-yl-phenoxymethyl)-thiazol-2-yl]-piperidine-1-carboxylic acid ethylamide] |

Second part, the compound before the results:

| SMILES | activation at 10 µM | Activity at 10 uM (% change in FRET signal from DMSO control) |
| --- | --- | --- |
| CS(=O)(=O)c1ccc(OCc2csc(C3CCN(C(=O)OC45CC6CC(CC(C6)C4)C5)CC3)n2)cc1 [Example 25, 4-[4-(4-Methanesulfonyl-phenoxymethyl)-thiazol-2-yl]-piperidine-1-carboxylic acid adamantan-1-yl ester] | 23% | – |
| COC(=O)N1CCC(c2nc(COc3ccc(S(C)(=O)=O)cc3)cs2)CC1 [Example 26, 4-[4-(4-Methanesulfonyl-phenoxymethyl)-thiazol-2-yl]-piperidine-1-carboxylic acid methyl ester] | 58% | – |
| CS(=O)(=O)c1ccc(OCc2csc(C3CCN(C(=O)Oc4ccc(F)cc4)CC3)n2)cc1 [Example 27, 4-[4-(4-Methanesulfonyl-phenoxymethyl)-thiazol-2-yl]-piperidine-1-carboxylic acid 4-fluoro-phenyl ester] | 63% | – |
| COc1ccc(OC(=O)N2CCC(c3nc(COc4ccc(S(C)(=O)=O)cc4)cs3)CC2)cc1 [Example 28, 4-[4-(4-Methanesulfonyl-phenoxymethyl)-thiazol-2-yl]-piperidine-1-carboxylic acid 4-methoxy-phenyl ester] | 62% | – |
| CS(=O)(=O)c1ccc(OCc2csc(C3CCN(C(=O)Oc4cccc5ccccc45)CC3)n2)cc1 [Example 29, 4-[4-(4-Methanesulfonyl-phenoxymethyl)-thiazol-2-yl]-piperidine-1-carboxylic acid naphthalen-1-yl ester] | 51% | – |
| O=C(OCCOCc1ccccc1)N1CCC(c2nc(COc3ccc(-n4cnnn4)cc3)cs2)CC1 [Example 37, 4-[4-(4-Tetrazol-1-yl-phenoxymethyl)-thiazol-2-yl]-piperidine-1-carboxylic acid 2-benzyloxy-ethyl ester] | 80% | – |
| CC(C)[C@@H]1CC[C@@H](C)C[C@H]1OC(=O)N1CCC(c2nc(COc3ccc(-n4cnnn4)cc3)cs2)CC1 [Example 38, 4-[4-(4-Tetrazol-1-yl-phenoxymethyl)-thiazol-2-yl]-piperidine-1-carboxylic acid 2-isopropyl-5-methyl-cyclohexyl ester] | 39% | – |
| CS(=O)(=O)c1ccc(OCc2csc(C3CCN(C(=O)C45CC6CC(CC(C6)C4)C5)CC3)n2)cc1 [Example 39, Adamantan-1-yl-{4-[4-(4-methanesulfonyl-phenoxymethyl)-thiazol-2-yl]-piperidin-1-yl}-methanone] | 9% | – |
| CS(=O)(=O)c1ccc(OCc2csc(C3CCN(C(=O)c4cccnc4)CC3)n2)cc1 [Example 40, {4-[4-(4-Methanesulfonyl-phenoxymethyl)-thiazol-2-yl]-piperidin-1-yl}-pyridin-3-yl-methanone] | 21% | – |
| CCOC(=O)CC(=O)N1CCC(c2nc(COc3ccc(-n4cnnn4)cc3)cs2)CC1 [Example 43, 3-Oxo-3-{4-[4-(4-tetrazol-1-yl-phenoxymethyl)-thiazol-2-yl]-piperidin-1-yl}-propionic acid ethyl ester] | 47% | – |
| CN1CCN(C(=O)N2CCC(c3nc(COc4ccc(-n5cnnn5)cc4)cs3)CC2)CC1 [Example 44, (4-Methyl-piperazin-1-yl)-{4-[4-(4-tetrazol-1-yl-phenoxymethyl)-thiazol-2-yl]-piperidin-1-yl}-methanone] | 53% | – |
| CS(=O)(=O)c1ccc(OCc2csc(C3CCN(c4ncccn4)CC3)n2)cc1 [Example 47, 2-{4-[4-(4-Methanesulfonyl-phenoxymethyl)-thiazol-2-yl]-piperidin-1-yl}-pyrimidine] | 51% | – |
| CCc1cnc(N2CCC(c3nc(COc4ccc(S(C)(=O)=O)cc4)cs3)CC2)nc1 [Example 51, 5-Ethyl-2-{4-[4-(4-methanesulfonyl-phenoxymethyl)-thiazol-2-yl]-piperidin-1-yl}-pyrimidine] | 57% | – |
| CCc1cnc(N2CCC(c3nc(COc4ccc(-n5cnnn5)cc4)cs3)CC2)nc1 [Example 52, 5-Ethyl-2-{4-[4-(4-tetrazol-1-yl-phenoxymethyl)-thiazol-2-yl]-piperidin-1-yl}-pyrimidine] | – | 67% |
| Brc1cnc(N2CCC(c3nc(COc4ccc(-n5cnnn5)cc4)cs3)CC2)nc1 [Example 54, 5-Bromo-2-{4-[4-(4-tetrazol-1-yl-phenoxymethyl)-thiazol-2-yl]-piperidin-1-yl}-pyrimidine] | 58% | – |
